These results are taken from paper PMC11336009 (GeroScience, 2024).

Like-named read-outs stand apart in the source and are kept apart here.

The subject of data set [1] is 6-OHDA unilateral medial forebrain bundle lesioned rat. Nature of the data set: BrdU immunoreactivity (neurogenesis marker) in SVZ and striatum of 6-OHDA lesioned rats. The format is in vivo. To be noted: delayed treatment 30 mg/kg daily p.o.; BrdU 50 mg/kg i.p. day 8 to 20; day 21. As for the experimental part: Gliptin treatment was initiated either prior to or after 6-OHDA lesioning (early and delayed treatment, respectively) as follows. […]. An estimated dose for a 250-g rat under this treatment was 10 mg/kg/day. […]. An estimated, clinically relevant, dose for a 250 g rat under this treatment was thus 30 mg/kg/day. Specifically for drug admixture into diet, drug was solubilized in 100% ETOH that was then added to the 16.2 g of food chow. Thereafter, the ETOH was evaporated off. […] Animals were weighed twice weekly and the amount of drug added to the chow was modified accordingly to maintain the daily required dose. […]. […] Specifically, the 10 mg/kg oral daily drug dose in our rat studies is equivalent to the routine human daily oral dose (100 mg in a 65 kg human) of these gliptins used in T2DM, and the 30 mg/kg rat dose is equivalent to a threefold higher dose that is well-tolerated in humans.
Following the exact same protocol described in Yin et al., 2012 [34] and Harvey et al. 2004 [36], anesthetized rats were subjected to a 6-OHDA unilateral medial forebrain bundle lesion. Briefly, 6-OHDA (2.27 µg/µL × 5 µL in 0.9% NaCl containing 0.2 mg/ml ascorbic acid) was unilaterally injected into the medial forebrain bundle (-4.4 mm AP, 1.2 mm ML relative to bregma and 8.4 mm below skull) over 4 min through a syringe pump (Micro 4, WPI, Sarasota, FL), as approved under National Health Research Institutes, Taiwan, Protocol # 102,068-A; 102,102-A. Following this procedure, all animals were monitored daily for adverse signs of health for 1 week (in line with the approved protocols).
BrdU (Sigma-Aldrich, St. Louis, MO) was injected parenterally (i.p.) from day 8 to day 20 after 6-OHDA lesioning at the dose of 50 mg/kg/day as a marker of neurogenesis. Animals were euthanized for immunostaining on day 21.
BrdU and TH localization was determined by immunohistochemistry. Serial sections of the entire brain were cut at 30 μm thickness by cryostat. One series from every sixth section was stained for TH. To control for staining variability, specimens from all experimental groups were included in every batch and reacted together in a net well tray under the same conditions. Sections were rinsed in 0.1 M phosphate buffer (PB), blocked with 4% bovine serum albumin (BSA) and 0.3% Triton x-100 in 0.1 M PB. […]
TH immunoreactivity and BrdU cell number in striatum were averaged from 3 brain sections with visible anterior commissure in each animal. TH immunoreactivity in SNc was measured every 6th Sect. […] Nigral volume was analyzed using Cavalieri's method.

In the next data set the test system is GLP-1 and GIP. The data set can be described thus: Active GLP-1 and GIP measurement in rat plasma and CSF (ELISA). In kind it is in vivo. To be noted: 30 mg/kg daily p.o. day 7 to 45, day 45. As for the experimental part:
Plasma was obtained from whole blood samples at the time of euthanasia (centrifugation 10,000xG 60 s at 4 °C), and CSF was obtained from the cisterna magna. Samples were evaluated by ELISA using kits from IBL (Immuno-Biological Laboratories, Inc.) or from Millipore, following their protocols.
Background: ELISA stands for enzyme-linked immunosorbent assay.

The test system of data set [2] is 6-OHDA unilateral medial forebrain bundle lesioned rat. The data set can be described thus: Dopamine measurements by HPLC in striatum and SNc of 6-OHDA lesioned rats. To be noted: delayed treatment, low dose 10 mg/kg daily p.o. from day 7. The format is in vivo.
Protocol: Gliptin treatment was initiated either prior to or after 6-OHDA lesioning (early and delayed treatment, respectively) as follows. […] An estimated dose for a 250-g rat under this treatment was 10 mg/kg/day. […] An estimated, clinically relevant, dose for a 250 g rat under this treatment was thus 30 mg/kg/day. Specifically for drug admixture into diet, drug was solubilized in 100% ETOH that was then added to the 16.2 g of food chow. Thereafter, the ETOH was evaporated off. […] Animals were weighed twice weekly and the amount of drug added to the chow was modified accordingly to maintain the daily required dose.
Brain samples were collected at 45 days after 6-OHDA lesioning. Striatal and SNc tissues were weighed and stored at − 80 °C until extraction. The tissues obtained from each animal were homogenized in 0.1 M perchloric acid and centrifuged at 13,000 g for 15 min. DA levels were measured by HPLC with electrochemical detection [47]. The analytical column was a Symmetry C18 3.5 µm (4.6 × 150.0 mm) from Waters (Milford, MA). The mobile phase consisted of 0.01 M sodium dihydrogen phosphate, 0.01 M citric acid, 2 mM sodium EDTA, 1 mM sodium octylsulfate, 10% methanol, pH 3.5 and was used at flow rate of 0.9 ml/min and a temperature of 25 °C. […] DA content was calculated as nmole/g of tissue weight.
Data set [3] is described as follows: Body weight of 6-OHDA lesioned rats under chronic gliptin treatment. In kind it is in vivo, rat. To be noted: 12 mg/kg daily from day 7 after lesioning, one day before and 28 days after lesioning. Here is the method:
Gliptin treatment was initiated either prior to or after 6-OHDA lesioning (early and delayed treatment, respectively) as follows. […] Specifically for drug admixture into diet, drug was solubilized in 100% ETOH that was then added to the 16.2 g of food chow. Thereafter, the ETOH was evaporated off. […] Animals were weighed twice weekly and the amount of drug added to the chow was modified accordingly to maintain the daily required dose. […] Specifically, the 10 mg/kg oral daily drug dose in our rat studies is equivalent to the routine human daily oral dose (100 mg in a 65 kg human) of these gliptins used in T2DM, and the 30 mg/kg rat dose is equivalent to a threefold higher dose that is well-tolerated in humans.

A short description of data set [4]: Rat pharmacokinetic study: plasma and brain levels after single oral dose. In kind it is in vivo. Conditions: male, Sprague-Dawley; for concentration at 105 min: po, 10 mg/kg, mean ± SEM. As for the experimental part: A blood sample was obtained and the plasma was separated (10,000 G, 60 s, 4 °C) and frozen to -80 °C. The vasculature was immediately cleared with physiological saline, and a section through the right cerebral hemisphere was obtained and flash frozen to -80 °C.

In data set [5] the test system is TNF-α, IL-6, Iba-1 and GFAP. Nature of the data set: Neuroinflammatory measures in brain (TNF-α, IL-6 ELISA; Iba-1, GFAP Western blot). To be noted: 30 mg/kg daily p.o. day 7 to 45; day 45. In kind it is in vivo, rat. Here is the method: To quantify rat brain cytokine levels, brain tissues were homogenized in TPER (Tissue Protein Extraction Reagent) (ThermoFisher Scientific) using a Biomasher Homogenizer. Inhibitors of phosphatase and protease were added into the TPER to prevent protein degradation. Tissues were then sonicated for 10 pulses and centrifuged at 10,000 g for 10 min at 4 °C. The supernatant was used to measure brain cytokine levels using rat TNF-α ELISA kits from e-Bioscience (San Diego, CA, USA) and rat IL-6 ELISA kits from Biolegend (San Diego, CA, USA). The final results were normalized to protein content, as measured by BCA (bicinchoninic acid) assay. Brain tissue Iba-1 and GFAP levels were quantified by Western blot (Iba-1 and GFAP antibodies Santa Cruz Biotechnology, Inc.) and used in 1:100 dilution).

The next data set relates to high-fat-fed mice. Conditions: cited from earlier work.
A further data set concerns rat rotenone model of PD. To be noted: cited from earlier work.

As for `O=C([C@@H]1C[C@H](N2CCN(c3ncccn3)CC2)CN1)N1CCC(F)(F)C1` [PF-00734,200, Gosogliptin], in data set [1], the “BrdU labeling in the SVZ vs vehicle” value is listed as “did not alter” and the “BrdU labeling in the lesioned striatum vs vehicle” value was “significantly increased”. Also, in the data set with GLP-1 and GIP (CSF), the “CSF GIP level vs vehicle” value is “elevated” and the “CSF GLP-1 level vs vehicle” value is given as “elevated”. Besides, in the data set on GLP-1 and GIP, the “Plasma GIP level vs vehicle” value was “elevated” and the “Plasma GLP-1 level vs vehicle” value is on record as “elevated”. Also, in data set [2] (10 mg/kg), the “DA levels in SNc or striatum vs vehicle” value is listed as “not significantly altered”. Moreover, in data set [2] (listed as PF‐00734,200, 10 mg/kg), the “DA levels in SNc or striatum vs vehicle” value is on record as “did not alter DA level”. Moreover, the “Body weight in 6-OHDA lesioned rats” value in data set [3] is recorded as “did not alter body weight”. Also, the concentration at 105 min in data set [4] (brain, rat brain, 105 min after oral 10 mg/kg, read-out: BrFree (brain free concentration)) amounted to 0.195 ± 0.0349 µM. Besides, in data set [4] (brain, rat brain, 105 min after oral 10 mg/kg, read-out: BrTotal (brain total concentration)), the concentration at 105 min came to 0.574 ± 0.103 µM. In addition, the Kp at 105 min in data set [4] (brain/plasma, 105 min after oral 10 mg/kg, read-out: Br/Pl ratio (Total)) was determined as 0.62. Also, the concentration at 105 min in data set [4] (plasma, rat plasma, 105 min (predicted Cmax) after oral 10 mg/kg, n = 5 to 6, read-out: PlTotal (plasma total concentration)) is 0.922 ± 0.206 µM. Also, the concentration at 105 min in data set [4] (plasma, rat plasma, 105 min after oral 10 mg/kg, read-out: PlFree (plasma free concentration)) was 0.83 ± 0.185 µM. Moreover, in data set [5], the “GFAP level on the lesioned side of brain (striatum) vs vehicle” value is on record as “reduced levels”, the “IL-6 level on the lesioned side of brain (striatum) vs vehicle” value was “reduced levels”, the “Iba1 level on the lesioned side of brain (striatum) vs vehicle” value is reported as “reduced levels” and the “TNF-α level on the lesioned side of brain (striatum) vs vehicle” value is “reduced levels”.

In the case of `N[C@@H](CC(=O)N1CCn2c(nnc2C(F)(F)F)C1)Cc1cc(F)c(F)cc1F` [Sitagliptin], in data set [1], the “BrdU labeling in the SVZ vs vehicle” value was “did not alter” and the “BrdU labeling in the lesioned striatum vs vehicle” value is “significantly increased”. Besides, the “CSF GIP level vs vehicle” value with GLP-1 and GIP (CSF) is “elevated”. For the same compound, in the data set with GLP-1 and GIP, the “Plasma GIP level vs vehicle” value is “elevated” and the “Plasma GLP-1 level vs vehicle” value was “elevated”. Moreover, the Hippocampal neurogenesis entry in the data set with high-fat-fed mice is listed as “augmented hippocampal neurogenesis”. Also, the “Body weight in 6-OHDA lesioned rats” value in data set [3] is on record as “did not alter body weight”. Besides, the “Effects in rat rotenone model of PD” value in the data set on rat rotenone model of PD was “mitigated motor deficits, striatal DA loss, SNc dopaminergic neuronal degeneration and neuroinflammation”. Besides, in data set [5], the “GFAP level on the lesioned side of brain (striatum) vs vehicle” value is on record as “reduced levels”, the “IL-6 level on the lesioned side of brain (striatum) vs vehicle” value is recorded as “reduced levels”, the “Iba1 level on the lesioned side of brain (striatum) vs vehicle” value is “reduced levels” and the “TNF-α level on the lesioned side of brain (striatum) vs vehicle” value is recorded as “reduced levels”.
